Where two headings read alike, the source gives them in different places.
Experiments:
PfENT1 [1] = biological target: T1, PfENT1 (Plasmodium falciparum, UniProt Q8IDM6); test: Uptake competition vs [3H]adenosine in PfENT1-expressing Xenopus oocytes; type: cell-based
PfENT1 [2] = biological target: T1, PfENT1; test: Uptake competition vs [3H]hypoxanthine in PfENT1-expressing Xenopus oocytes; type: cell-based; settings: for Ki / competition with uptake of 100 nM [3H]hypoxanthine: 10 min uptake; for Ki: one site fit, Cheng-Prusoff, mean ± SEM; for competition with uptake of 100 nM [3H]hypoxanthine: 2.5 and 10 mM competitor
P. falciparum = settings: cited from earlier work; for concentration toxic to parasite growth: as sole purine source in culture
PfENT1 [3] = biological target: T1, PfENT1; settings: cited from earlier work
PfHGXPRT = settings: read-out: Km for HGXPRT; cited from earlier work
PfENT1 [4] = biological target: T1, PfENT1; test: Time course of radiolabeled substrate uptake by PfENT1-expressing oocytes; type: cell-based; settings: […] [3H] substrate
intact parasites = settings: read-out: Km for uptake in intact parasites; Quashie et al. (2008); cited from earlier work
[5] = Ki, Competition vs. [3H]hypoxanthine, 100 nM [3H]hypoxanthine
[6] = read-out: PfENT1 Km, Xenopus oocytes, Carter and coworkers
[7] = read-out: PfENT1 transport Km, Xenopus oocytes, Parker et al.

T1 sequence (Q8IDM6 whole entry): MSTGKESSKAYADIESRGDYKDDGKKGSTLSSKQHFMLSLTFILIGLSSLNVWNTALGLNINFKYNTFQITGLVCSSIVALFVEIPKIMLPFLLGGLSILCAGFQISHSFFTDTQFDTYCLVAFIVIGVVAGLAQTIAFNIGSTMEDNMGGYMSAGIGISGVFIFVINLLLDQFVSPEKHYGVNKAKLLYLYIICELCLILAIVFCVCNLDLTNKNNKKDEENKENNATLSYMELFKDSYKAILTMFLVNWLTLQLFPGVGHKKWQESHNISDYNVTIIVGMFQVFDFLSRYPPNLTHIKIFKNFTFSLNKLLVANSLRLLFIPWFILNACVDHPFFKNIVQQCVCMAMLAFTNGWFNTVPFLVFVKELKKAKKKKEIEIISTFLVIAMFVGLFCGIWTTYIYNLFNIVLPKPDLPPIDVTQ

In the case of `Nc1ncnc2c1ccn2[C@@H]1O[C@H](CO)[C@@H](O)[C@H]1O` [Tubercidin, 7-deazaadenosine], the Ki (PfENT1 [1]) is given as 590 ± 100 µM, the Ki (PfENT1 [2]; [5]) is given as 420 ± 110 µM and the “IC37, parasite growth inhibition” value (P. falciparum; in vitro culture in RPMI media supplemented with human serum) is given as 0.4 to 0.7 µM.
For `OC[C@H]1O[C@@H](n2cnc3c(O)ncnc32)[C@H](O)[C@@H]1O` [inosine], the Km (PfENT1 [3]; [6]) is listed as 253 µM.
With `Nc1nc2c([C@@H]3N[C@H](CO)[C@@H](O)[C@H]3O)c[nH]c2c(=O)[nH]1` [Immucillin-G] the “competition with uptake of 100 nM [3H]hypoxanthine” value (“competition with uptake of 100 nM” for short) (PfENT1 [2]) was “failed to compete”.
For `Nc1nc2nc[nH]c2c(=O)[nH]1` [guanine], the Km (PfHGXPRT) is given as 0.3 µM and the “concentration toxic to parasite growth” value (P. falciparum) is given as greater than 50 µM.
In the case of `O=c1[nH]c(=O)c2[nH]cnc2[nH]1` [xanthine], the “concentration toxic to parasite growth” value (P. falciparum) is given as greater than 50 µM.
In the case of `Nc1ncnc2nc[nH]c12` [adenine], the Km (PfENT1 [3]; [7]) is given as 320 µM.
In the case of `Nc1nc2c(ncn2[C@@H]2O[C@H](CO)[C@@H](O)[C@H]2O)c(=O)[nH]1` [guanosine], the “concentration toxic to parasite growth” value (P. falciparum) is given as greater than 50 µM.
For `Nc1ncnc2c1ncn2[C@@H]1O[C@H](CO)[C@@H](O)[C@H]1O` [Adenosine], the Km (PfENT1 [3]; [6]) is given as 13 µM, the Km (PfENT1 [3]; read-out: PfENT1 adenosine Km, Downie et al.) is given as 1860 µM and the Km (PfENT1 [3]; [7]) is given as 320 µM. For the same compound, the “uptake per oocyte at 60 min” value (PfENT1 [4]) was roughly 7 pmol.
`O=c1[nH]cnc2cc[nH]c12` [9-Deaza-hypoxanthine, 9-Deazahypoxanthine] showed a Ki (PfENT1 [1]) of 940 ± 270 µM and a Ki (PfENT1 [2]; [5]) of 710 ± 410 µM.
In the case of `CSC[C@H]1N[C@@H](c2c[nH]c3c(=O)[nH]cnc23)[C@H](O)[C@@H]1O` [MT-ImmH], the “effect on malaria parasites during in vitro culture” value (P. falciparum) is listed as “lethal”.
For `CSC[C@H]1O[C@@H](n2ccc3c(N)ncnc32)[C@H](O)[C@@H]1O` [MT-Tubercidin (10), 5′-methylthiotubercidin], the Ki (PfENT1 [2]; read-out: Ki, Competition vs. [3H]hypoxanthine, 100 nM [3H]hypoxanthine) was 1100 µM.
For `NC[C@H]1O[C@@H](n2cc(I)c3c(Cl)ncnc32)[C@H](O)[C@@H]1O` [compound 1, 4-Chloro-5-iodo-7-(5-amino-5-deoxy-β-d-ribofuranosyl)pyrrolo[2,3-d]pyrimidine], the Ki (PfENT1 [1]) was 1200 ± 300 µM, the Ki (PfENT1 [2]; [5]) was 3400 µM and the “increase of transport Ki compared to tubercidin” value (PfENT1 [2]; vs [3H]hypoxanthine) was 8 fold.
For `O=c1[nH]cnc2nc[nH]c12` [Hypoxanthine], the Km (intact parasites) is listed as 0.34 µM, the Km (PfHGXPRT) is listed as 0.46 µM and the “block of [3H]hypoxanthine uptake” value (PfENT1 [2]; 2 mM unlabeled hypoxanthine, 100 nM [3H]hypoxanthine) is listed as ~ 90%. For the same compound, the Ki (PfENT1 [2]; [5]) was 300 ± 32 µM and the Km (PfENT1 [3]; [7]) was 410 µM.
In the case of `O=c1[nH]cnc2c([C@@H]3N[C@H](CO)[C@@H](O)[C@H]3O)c[nH]c12` [ImmH, Immucillin-H], the “competition with uptake of 100 nM” value (PfENT1 [2]) is listed as “failed to compete” and the “inhibition of parasite growth” value (P. falciparum; 10 μM immucillinH in the presence of 10 μM hypoxanthine) is listed as “completely inhibited parasite growth”.
With `Nc1ncnc2c(C3N[C@H](CO)[C@@H](O)[C@H]3O)c[nH]c12` (some centres unmarked) [Immucillin-A] the “competition with uptake of 100 nM” value (PfENT1 [2]) was “failed to compete”.
With `Nc1ncnc2c1c(I)cn2[C@@H]1O[C@H](CO)[C@@H](O)[C@H]1O` [Iodotubercidin, 5′-iodotubercidin] the Ki (PfENT1 [1]) was 66 ± 15 µM, the “second site, fold higher apparent affinity” value (PfENT1 [1]; two-site fit vs [3H]adenosine) was 1000 fold and the Ki (PfENT1 [2]; [5]) was 54 ± 8 µM.
